Assay results: patent US20040024056A1, “Dihydrofuran cyclic tanshinones used in treating hyperammonemia and hepatic encephalopathy” (priority 2001, published 2004)

Legend:
[1] = tested on: hyperammonemia rats; assay: Blood ammonia reducing experiment (in injection), acetamide-treated rats; assay type: in vivo, SD rats; settings: for Blood ammonia concentration / Reduction rate: i.p. for 4 days, sodium glutamate 410 mg/kg
Method: The animals used in this experiment were 50 healthy male SD rats weighing 250-300 g. They were randomly divided into 5 groups, that is, group of normal control, experimental control (acetamide group), sodium glutamate/acetamide group, Dihydortanshinone I/acetamide group and tanshinone IIA/acetamide group. The rats in all those groups except the normal control group were injected intraperitoneally with saline, sodium glutamate injection (with a dose of 410 mg/kg), saline solution of Dihydortanshinone I (containing small amount of surface active agent, with a dose of 10 mg/kg), saline solution of tanshinone IIA (containing small amount of surface active agent, with a dose of 10 mg/kg) respectively. 45 min after the injection, the rats in all those groups except control group were injected intraperitoneally with 5.5 mmol/kg acetamide. Above injections continued for 4 days. In the 4th day, 30 min after the acetamide injection, blood samples of the rats in each group were collected by eyeball removing method immediately, and processed with the anticoagulant EDTA-Na, then the blood ammonia concentration was determined using conventional method. […] The dose of […] in this example and following examples was settled with the reference of its actual clinical dose. The method for determining the blood ammonia concentration in this example and following examples was enzyme-UV method, the instrument used was HITACHI-7170 automatic analyzer, and the kit used was AMMONIA kit.
(§1) With the same experiment method, 90 min after the acetamide injection at the 4th day, blood samples of the rats in each group were collected by eyeball removing method immediately, and processed with the anticoagulant EDTA-Na, then the blood ammonia concentration was determined.
The animals used in this experiment were 40 healthy male SD rats weighing 250-300 g. They were randomly divided into 4 groups, that is, normal control group, experimental control group (acetamide group), sodium glutamate/acetamide group, and Cryptotanshinone/acetamide group. The rats in all those groups except the normal control group were injected intraperitoneally with saline, sodium glutamate injection (with a dose of 410 mg/kg), and saline solution of Cryptotanshinone (containing small amount of surface active agent, with a dose of 10 mg/kg) respectively. 45 min after the injection, the rats in all those groups except the normal control group were injected intraperitoneally with 5.5 mmol/kg acetamide. Above injections continued for 4 days. In the 4th day, 30 min after the acetamide injection, blood samples of the rats in each group were collected by eyeball removing method immediately, and processed with the anticoagulant EDTA-Na, then the blood ammonia concentration was determined.

[2] = tested on: hyperammonemia rats; assay: Blood ammonia reducing experiment (in oral), acetamide-treated rats; assay type: in vivo, SD rats
Method: In the 4th day, 30 min after the acetamide injection, blood samples of the rats in each group were collected by eyeball removing method immediately, and processed with the anticoagulant EDTA-Na, then the blood ammonia concentration was determined.
as §1

[3] = tested on: acute hepatocirrhosis hyperammnonemia rat model; assay: Coma and death caused by acute hepatocirrhosis in rats (in injection); assay type: in vivo, SD rats; settings: Table 9; i.p. 4 days, Cryptotanshinone 10 mg/kg, sodium glutamate 410 mg/kg; tetrachloro-methane peanut oil; 8.5 mmol/kg acetamide i.p. on 4th day
Method: The animals used in this experiment were 40 healthy male SD rats weighing 250-300 g. They were randomly divided into 4 groups, that is, group of normal control, experimental control (acetamide group), sodium glutamate/acetamide group, and Cryptotanshinone/acetamide group. The rats in all those groups except the normal control group were injected intraperitoneally with saline, sodium glutamate injection (with a dose of 410 mg/kg), and saline solution of Cryptotanshinone (containing small amount of surface active agent, with a dose of 10 mg/kg) respectively. 45 min after the injection, the rats in all those groups except the normal control group were injected intraperitoneally with peanut oil containing 0.1% tetrachloro-methane. Above injections continued for 4 days. In the 4th day, 45 min after the tetrachloride peanut oil injection, the rats in each group (including the normal control group) were injected intraperitoneally with 8.5 mmol/kg acetamide solution. The time from acetamide injection to coma (latent period), from coma to awakening (coma time) and death rate in rats was recorded.

[4] = tested on: acute hepatocirrhosis hyperammnonemia rat model; assay: Coma and death caused by acute hepatocirrhosis in rats (in oral); assay type: in vivo, SD rats; settings: Table 10; Cryptotanshinone oral 100 mg/kg; tetrachloro-methane peanut oil; 8.5 mmol/kg acetamide i.p. on 4th day
Method: The time from acetamide injection to coma (latent period), from coma to awakening (coma time) and death rate in rats was recorded.

[5] = tested on: healthy male mice; assay: Acute toxicity test in mouse
Excerpt: Acute toxicity test in mouse: The animals used in this study were healthy male mice. The drug was administrated intragastrically for 7 days once daily.

[6] = tested on: healthy male mice; assay: 30 days toxicity test in mouse; assay type: in vivo; settings: intragastric, 200 mg/kg day
Method: The drug was continually administrated intragastrically for 30 days with dose of 200 mg/kg day.

[7] = Table 3, Cryptotanshinone 10 mg/kg, blood 30 min after acetamide on 4th day
[8] = Table 4, Cryptotanshinone 10 mg/kg, blood 90 min after acetamide on 4th day
[9] = Table 7, Cryptotanshinone in oral (intragastric 100 mg/kg), blood 30 min after acetamide on 4th day
[10] = Table 8, Cryptotanshinone in oral (intragastric 100 mg/kg), blood 90 min after acetamide on 4th day
[11] = Table 1, tanshinones 10 mg/kg, blood 30 min after 5.5 mmol/kg acetamide on 4th day
[12] = Table 1, tanshinones 10 mg/kg, blood 30 min after acetamide on 4th day
[13] = Table 2, tanshinones 10 mg/kg, blood 90 min after acetamide on 4th day
[14] = Table 5, tanshinones intragastric 100 mg/kg, acetamide 120 min later, blood 30 min after acetamide on 4th day
[15] = Table 6, tanshinones intragastric 100 mg/kg, blood 90 min after acetamide on 4th day

C[C@H]1COC2=C1C(=O)C(=O)c1c2ccc2c1CCCC2(C)C [Cryptotanshinone, 1,6,6-trimethyl-1,2,6,7,8,9-hexahydrophenanthrene[1,2-b]furan-10,11-dione] was tested, and the Blood ammonia concentration [1, 7] was 420 µmol/L, the Reduction rate [1, 7] was 60% and the Blood ammonia concentration [1, 8] was 110 µmol/L. It also gave a Reduction rate [1, 8] of 100%, a Blood ammonia concentration [2, 9] of 470 µmol/L and a Reduction rate [2, 9] of 54%. For the same molecule, the Blood ammonia concentration [2, 10] was 120 µmol/L, the Reduction rate [2, 10] was 97% and the “Coma time (from coma to awakening)” value [3] was 65 min. For the same molecule, the “Latent period (time from acetamide injection to coma)” value (shortened to “Latent period”) [3] was 12 min, the Mortality [3] was 20% and the “Coma time (from coma to awakening)” value [4] was 75 min. For the same molecule, the “Latent period” value [4] was 12 min, the Mortality [4] was 20% and the LD50 ([5]; mice, intragastric, once daily for 7 days) was > 1500 mg/kg. For the same molecule, the “Toxic symptom or death” value ([5]; mice, intragastric, once daily for 7 days, dose up to 1.5 g/kg) was “no toxic symptom or death”, the “Toxicity, overall conclusion” value ([5]; summary statement) was “safe to use as drug in normal dosage” and the Death of mice [6] was “no death of mice manifested”. The “Growth and development, hematopoietic function, biochemical index” value [6] was “no apparent abnormal change or toxic reaction” and the “Pathology of major organs (anatomical and tissue microscopy inspection)” value [6] was “No pathology change of major organs”.

Molecule Cc1cccc2c3c(ccc12)C1=C(C(=O)C3=O)C(C)CO1 (centres unmarked) [Dihydortanshinone I, 1,6-dimethyl-1,2-dihydrophenanthrene[1,2-b]furan-10,11-dione] has a Blood ammonia concentration [1, 11] of 490 µmol/L, a Reduction rate [1, 12] of 51% and a Blood ammonia concentration [1, 13] of 125 µmol/L. The Reduction rate [1, 13] was 96%, the Blood ammonia concentration [2, 14] was 550 µmol/L and the Reduction rate [2, 14] was 44%. It also gave a Blood ammonia concentration [2, 15] of 135 µmol/L and a Reduction rate [2, 15] of 89%.

Work on N[C@@H](CCC(=O)[O-])C(=O)[O-].[Na+].[Na+] [Sodium Glutamate] yielded a Blood ammonia concentration [1, 11] of 480 µmol/L, a Reduction rate [1, 12] of 53% and a Blood ammonia concentration [1, 13] of 120 µmol/L. For the same molecule, the Reduction rate [1, 13] was 97%, the Blood ammonia concentration [1, 7] was 480 µmol/L and the Reduction rate [1, 7] was 53%. It also gave a Blood ammonia concentration [1, 8] of 110 µmol/L, a Reduction rate [1, 8] of 100% and a Blood ammonia concentration [2, 14] of 510 µmol/L. It also gave a Reduction rate [2, 14] of 49%, a Blood ammonia concentration [2, 15] of 130 µmol/L and a Reduction rate [2, 15] of 91%. For the same molecule, the Blood ammonia concentration [2, 9] was 510 µmol/L, the Reduction rate [2, 9] was 49% and the Blood ammonia concentration [2, 10] was 130 µmol/L. For the same molecule, the Reduction rate [2, 10] was 91%, the “Coma time (from coma to awakening)” value [3] was 75 min and the “Latent period” value [3] was 11 min. For the same molecule, the Mortality [3] was 50%, the “Coma time (from coma to awakening)” value [4] was 90 min and the “Latent period” value [4] was 9 min. It also gave a Mortality [4] of 50%.

Cc1coc2c1C(=O)C(=O)c1c-2ccc2c1CCCC2(C)C [Tanshinone IIA] was tested, and the Blood ammonia concentration [1, 11] was 850 µmol/L, the Reduction rate [1, 12] was <5% and the Blood ammonia concentration [1, 13] was 265 µmol/L. For the same molecule, the Reduction rate [1, 13] was <12%, the “Function to reduce the blood ammonia concentration” value ([1]; hyperammonemia animal model, summary statement) was “have no such function” and the Blood ammonia concentration [2, 14] was 865 µmol/L. The Reduction rate [2, 14] was <4%, the Blood ammonia concentration [2, 15] was 270 µmol/L and the Reduction rate [2, 15] was <10%.
